In ChEMBL document CHEMBL3217677, “Synthesis, biological evaluation and X-ray crystallographic studies of imidazo[1,2-a]pyridine-based Mycobacterium tuberculosis glutamine synthetase inhibitors” (Medchemcomm, 2012):

Experiment: Inhibition of Mycobacterium tuberculosis glutamine synthetase expressed in Escherichia coli GJ4745 after 1 hr by colorimetry

Row | Compound | IC50 [µM]
1 | CCCCNc1c(-c2cccc(OCCO)c2)nc2ccc(Br)cn12 | 2.2
2 | OCCOc1ccc(-c2nc3ccc(Br)cn3c2Nc2ccc(F)cc2)cc1 | > 25
3 | CCCNc1c(-c2ccc(OCCO)cc2)nc2ccc(Br)cn12 | 3.9
4 | CCCCNc1c(-c2ccc(OCCC)cc2)nc2ccc(Br)cn12 | 15
5 | CCCCNc1c(-c2ccc(OCC(=O)O)cc2)nc2ccc(Br)cn12 | 1.6
6 | COc1ccc(Nc2c(-c3ccc(OCc4ccccc4)c(OCc4ccccc4)c3)nc3ccc(Br)cn23)cc1 | > 25
7 | Cn1c(N2CCOCC2)nc2c1c(=O)n(Cc1ccc(Cl)c(Cl)c1)c(=O)n2C | 2.5
8 | Fc1cc(-c2nc3ccc(Br)cn3c2NC2CCCC2)ccc1N1CCOCC1 | > 25
9 | COc1cccc(-c2nc3ccc(Br)cn3c2NC2CCCC2)c1OCc1ccccc1 | > 25
10 | CC(C)Nc1c(-c2ccc(OCCO)cc2)nc2ccc(Br)cn12 | > 25
11 | Brc1ccc2nc(-c3ccccc3)c(NCCc3ccccc3)n2c1 | > 25
12 | COc1cccc(-c2nc3ccc(Br)cn3c2NCCN2CCOCC2)c1OC | > 25
13 | CCCCNc1c(-c2ccc(N(C)CCO)cc2)nc2ccc(Br)cn12 | 8.3
14 | CCCCNc1c(-c2ccc(OCC#N)cc2)nc2ccc(Br)cn12 | 10
15 | CC(C)Nc1c(-c2cccc(N3CCOCC3)c2)nc2ccc(Br)cn12 | > 25
16 | CC(C)Nc1c(-c2ccc(F)c(F)c2F)nc2ccc(Br)cn12 | > 25

Row | Compound | IC50 [µM]
17 | CCCCNc1c(-c2ccc(OCCN(C)C)cc2)nc2ccc(Br)cn12 | 5.8
18 | CCCCNc1c(-c2ccc(O)c(OC)c2)nc2ccc(Br)cn12 | 1.5
19 | CCCCNc1c(-c2ccc(N(CCO)CCO)cc2)nc2ccc(Br)cn12 | 22
20 | CN(C)c1ccc(-c2nc3ccc(Br)cn3c2NC2CCCC2)cc1 | > 25
21 | CCCCNc1c(-c2cccc(O)c2)nc2ccc(Br)cn12 | 1.4
22 | CCCCNc1c(-c2cccc(C(=O)O)c2)nc2ccc(Br)cn12 | 0.6
23 | CCCCCNc1c(-c2ccc(OCCO)cc2)nc2ccc(Br)cn12 | 4.9
24 | CS(=O)(=O)c1cc(Cl)ccc1-c1nc2ccc(Br)cn2c1NC1CCCC1 | > 25
25 | CC(C)(C)Nc1c(-c2ccccc2O)nc2ccc(Br)cn12 | > 25
26 | Oc1ccc(-c2nc3ccc(Br)cn3c2NC2CCCCC2)c(Cl)c1 | > 25
27 | Brc1ccc2nc(-c3ccccc3-c3ccccc3)c(NC3CCCC3)n2c1 | > 25
28 | CCCCNc1c(-c2ccc(OCCO)cc2)nc2ccc(Br)cn12 | 3
29 | CCCCNc1c(-c2ccc(OCC(N)=O)cc2)nc2ccc(Br)cn12 | 6.3
30 | OCCOc1ccc(-c2nc3ccc(Br)cn3c2NC2CCCC2)cc1 | > 25
31 | CCCCNc1c(-c2ccc(OC)c(O)c2)nc2ccc(Br)cn12 | 1.9
